Measurements: ChEMBL document CHEMBL1143429, “One-pot synthesis and antibacterial activities of pyrazolo[4',3':5,6]pyrido[2,3-d]pyrimidine-dione derivatives” (2008)
≈ marks a conversion by molar mass, not a printed value. Calls of active or inactive are those of the source. The calls are words filed in the database; no cut-off is given here.

Experiments:
Assay type in all cases: functional
Bacillus subtilis = assay: Antibacterial activity against Bacillus subtilis ATCC 465 by microdilution method
Micrococcus luteus = assay: Antibacterial activity against Micrococcus luteus PTCC 1110 by microdilution method
Pseudomonas aeruginosa = assay: Antibacterial activity against Pseudomonas aeruginosa ATCC 85327 by microdilution method
Streptococcus mutans = assay: Antibacterial activity against Streptococcus mutans PTCC 1601 by microdilution method
Escherichia coli = assay: Antibacterial activity against Escherichia coli ATCC 25922 by microdilution method
[1] = tested on: Staphylococcus epidermidis; assay: Antibacterial activity against Staphylococcus epidermidis ATCC 12228 by microdilution method
Enterococcus faecalis = assay: Antibacterial activity against Enterococcus faecalis ATCC 29737 by microdilution method
Staphylococcus aureus = assay: Antibacterial activity against Staphylococcus aureus ATCC 25923 by microdilution method
Bacillus pumilus = assay: Antibacterial activity against Bacillus pumilus PTCC 1114 by microdilution method

Molecule	MIC (Bacillus subtilis) [µg/mL]	MIC (Micrococcus luteus) [µg/mL]	MIC (Pseudomonas aeruginosa) [µg/mL]	MIC (Streptococcus mutans) [µg/mL]	MIC (Escherichia coli) [µg/mL]	MIC [1] [µg/mL]	MIC (Enterococcus faecalis) [µg/mL]	MIC (Staphylococcus aureus) [µg/mL]	MIC (Bacillus pumilus) [µg/mL]	Activity (Bacillus subtilis)	Activity (Micrococcus luteus)	Activity (Streptococcus mutans)	Activity [1]	Activity (Enterococcus faecalis)	Activity (Staphylococcus aureus)	Activity (Bacillus pumilus)	Activity (Pseudomonas aeruginosa)	Activity (Escherichia coli)
O=c1[nH]c(=S)[nH]c2c1C(c1ccc(Cl)cc1)c1c(-c3ccccc3)nn(-c3ccc([N+](=O)[O-])cc3)c1N2 (configuration not stated)	4 (≈ 7.56 µM)	3 (≈ 5.67 µM)	16 (≈ 30.2 µM)	8 (≈ 15.1 µM)	6 (≈ 11.3 µM)	6 (≈ 11.3 µM)	12 (≈ 22.7 µM)	6 (≈ 11.3 µM)	4 (≈ 7.56 µM)									
GENTAMICIN			8		4					inactive	inactive	inactive	inactive	inactive	inactive	inactive		
O=c1[nH]c2c(c(=O)[nH]1)C(c1cccc([N+](=O)[O-])c1)c1c(-c3ccccc3)nn(-c3ccc([N+](=O)[O-])cc3)c1N2 (configuration not stated)	6 (≈ 11.5 µM)	2 (≈ 3.82 µM)	30 (≈ 57.3 µM)	< 2	6 (≈ 11.5 µM)	26 (≈ 49.7 µM)	2 (≈ 3.82 µM)	2 (≈ 3.82 µM)	4 (≈ 7.64 µM)									
O=c1[nH]c(=S)[nH]c2c1C(c1ccccc1)c1c(-c3ccccc3)nn(-c3ccc([N+](=O)[O-])cc3)c1N2 (configuration not stated)	3 (≈ 6.07 µM)	4 (≈ 8.09 µM)	14 (≈ 28.3 µM)	8 (≈ 16.2 µM)	5 (≈ 10.1 µM)	7 (≈ 14.2 µM)	13 (≈ 26.3 µM)	3 (≈ 6.07 µM)	4 (≈ 8.09 µM)									
Cc1ccc(C2c3c(-c4ccccc4)nn(-c4ccc([N+](=O)[O-])cc4)c3Nc3[nH]c(=O)[nH]c(=O)c32)cc1 (configuration not stated)	6 (≈ 12.2 µM)	2 (≈ 4.06 µM)	28 (≈ 56.9 µM)	< 2	4 (≈ 8.12 µM)	24 (≈ 48.7 µM)	2 (≈ 4.06 µM)	2 (≈ 4.06 µM)	6 (≈ 12.2 µM)									
O=c1[nH]c(=S)[nH]c2c1C(c1ccc([N+](=O)[O-])cc1)c1c(-c3ccccc3)nn(-c3ccc([N+](=O)[O-])cc3)c1N2 (configuration not stated)	4 (≈ 7.41 µM)	4 (≈ 7.41 µM)	14 (≈ 25.9 µM)	8 (≈ 14.8 µM)	6 (≈ 11.1 µM)	8 (≈ 14.8 µM)	10 (≈ 18.5 µM)	6 (≈ 11.1 µM)	4 (≈ 7.41 µM)									
O=c1[nH]c2c(c(=O)[nH]1)C(c1ccccc1)c1c(-c3ccccc3)nn(-c3ccccc3)c1N2 (configuration not stated)	2 (≈ 4.61 µM)	< 2	2 (≈ 4.61 µM)	< 2	< 2	2 (≈ 4.61 µM)	2 (≈ 4.61 µM)	2 (≈ 4.61 µM)	< 2									
O=c1[nH]c2c(c(=O)[nH]1)C(c1cccc([N+](=O)[O-])c1)c1c(-c3ccccc3)nn(-c3ccccc3)c1N2 (configuration not stated)	2 (≈ 4.18 µM)	2 (≈ 4.18 µM)	2 (≈ 4.18 µM)	< 2	< 2	2 (≈ 4.18 µM)	2 (≈ 4.18 µM)	2 (≈ 4.18 µM)	2 (≈ 4.18 µM)									
O=c1[nH]c2c(c(=O)[nH]1)C(c1ccccc1)c1c(-c3ccccc3)nn(-c3ccc([N+](=O)[O-])cc3)c1N2 (configuration not stated)	6 (≈ 12.5 µM)	2 (≈ 4.18 µM)	20 (≈ 41.8 µM)	< 2	4 (≈ 8.36 µM)	18 (≈ 37.6 µM)	4 (≈ 8.36 µM)	4 (≈ 8.36 µM)	4 (≈ 8.36 µM)									
Cc1ccc(C2c3c(-c4ccccc4)nn(-c4ccccc4)c3Nc3[nH]c(=O)[nH]c(=O)c32)cc1 (configuration not stated)	2 (≈ 4.47 µM)	< 2	2 (≈ 4.47 µM)	< 2	< 2	2 (≈ 4.47 µM)	2 (≈ 4.47 µM)	2 (≈ 4.47 µM)	2 (≈ 4.47 µM)									
O=c1[nH]c2c(c(=O)[nH]1)C(c1ccc(Cl)cc1)c1c(-c3ccccc3)nn(-c3ccc([N+](=O)[O-])cc3)c1N2 (configuration not stated)	8 (≈ 15.6 µM)	4 (≈ 7.8 µM)	28 (≈ 54.6 µM)	< 2	6 (≈ 11.7 µM)	28 (≈ 54.6 µM)	2 (≈ 3.9 µM)	4 (≈ 7.8 µM)	6 (≈ 11.7 µM)									
CN(C)[C@@H]1C(O)=C(C(N)=O)C(=O)[C@@]2(O)C(O)=C3C(=O)c4c(O)cccc4[C@@](C)(O)[C@H]3C[C@@H]12 [TETRACYCLINE]	4 (≈ 9 µM)	4 (≈ 9 µM)		2 (≈ 4.5 µM)		< 2	8 (≈ 18 µM)	4 (≈ 9 µM)	8 (≈ 18 µM)								inactive	inactive
O=c1[nH]c2c(c(=O)[nH]1)C(c1ccc(Br)cc1)c1c(-c3ccccc3)nn(-c3ccccc3)c1N2 (configuration not stated)	2 (≈ 3.9 µM)	2 (≈ 3.9 µM)	2 (≈ 3.9 µM)	< 2	< 2	2 (≈ 3.9 µM)	30 (≈ 58.6 µM)	58 (≈ 113 µM)	2 (≈ 3.9 µM)									
O=c1[nH]c(=S)[nH]c2c1C(c1ccc(Cl)cc1)c1c(-c3ccccc3)nn(-c3ccccc3)c1N2 (configuration not stated)	4 (≈ 8.26 µM)	4 (≈ 8.26 µM)	16 (≈ 33.1 µM)	8 (≈ 16.5 µM)	4 (≈ 8.26 µM)	8 (≈ 16.5 µM)	16 (≈ 33.1 µM)	4 (≈ 8.26 µM)	4 (≈ 8.26 µM)									
O=c1[nH]c(=S)[nH]c2c1C(c1ccccc1)c1c(-c3ccccc3)nn(-c3ccccc3)c1N2 (configuration not stated)	4 (≈ 8.9 µM)	8 (≈ 17.8 µM)	32 (≈ 71.2 µM)	< 2	4 (≈ 8.9 µM)	4 (≈ 8.9 µM)	4 (≈ 8.9 µM)	8 (≈ 17.8 µM)	4 (≈ 8.9 µM)									
O=c1[nH]c(=S)[nH]c2c1C(c1ccc([N+](=O)[O-])cc1)c1c(-c3ccccc3)nn(-c3ccccc3)c1N2 (configuration not stated)	4 (≈ 8.09 µM)	3 (≈ 6.07 µM)	12 (≈ 24.3 µM)	6 (≈ 12.1 µM)	6 (≈ 12.1 µM)	8 (≈ 16.2 µM)	14 (≈ 28.3 µM)	4 (≈ 8.09 µM)	4 (≈ 8.09 µM)									
O=c1[nH]c2c(c(=O)[nH]1)C(c1ccc(Cl)cc1)c1c(-c3ccccc3)nn(-c3ccccc3)c1N2 (configuration not stated)	4 (≈ 8.55 µM)	< 2	2 (≈ 4.27 µM)	< 2	< 2	4 (≈ 8.55 µM)	32 (≈ 68.4 µM)	64 (≈ 137 µM)	2 (≈ 4.27 µM)									
O=c1[nH]c2c(c(=O)[nH]1)C(c1ccc(Br)cc1)c1c(-c3ccccc3)nn(-c3ccc([N+](=O)[O-])cc3)c1N2 (configuration not stated)	8 (≈ 14.4 µM)	2 (≈ 3.59 µM)	32 (≈ 57.4 µM)	< 2	4 (≈ 7.18 µM)	32 (≈ 57.4 µM)	4 (≈ 7.18 µM)	4 (≈ 7.18 µM)	4 (≈ 7.18 µM)									
